Molecular target: ER (Homo sapiens (Human), UniProt P03372)
Assay: Western blot analysis (Compounds B1-B278)
Assay type: cell-based
Conditions: ER degradation by traditional Western blot; DC50 classes
Summary of the method: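 Compound-treated cells were lysed in RIPA buffer (Tris.HCl pH 7.6, 1% NP-40, deoxycholate, 0.1% SDS) with protease inhibitors; equal protein was resolved on 10% SDS-PAGE, transferred to PVDF and immunoblotted. Band intensities were quantified and normalized to GAPDH.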

ER, sequence (P03372 whole entry): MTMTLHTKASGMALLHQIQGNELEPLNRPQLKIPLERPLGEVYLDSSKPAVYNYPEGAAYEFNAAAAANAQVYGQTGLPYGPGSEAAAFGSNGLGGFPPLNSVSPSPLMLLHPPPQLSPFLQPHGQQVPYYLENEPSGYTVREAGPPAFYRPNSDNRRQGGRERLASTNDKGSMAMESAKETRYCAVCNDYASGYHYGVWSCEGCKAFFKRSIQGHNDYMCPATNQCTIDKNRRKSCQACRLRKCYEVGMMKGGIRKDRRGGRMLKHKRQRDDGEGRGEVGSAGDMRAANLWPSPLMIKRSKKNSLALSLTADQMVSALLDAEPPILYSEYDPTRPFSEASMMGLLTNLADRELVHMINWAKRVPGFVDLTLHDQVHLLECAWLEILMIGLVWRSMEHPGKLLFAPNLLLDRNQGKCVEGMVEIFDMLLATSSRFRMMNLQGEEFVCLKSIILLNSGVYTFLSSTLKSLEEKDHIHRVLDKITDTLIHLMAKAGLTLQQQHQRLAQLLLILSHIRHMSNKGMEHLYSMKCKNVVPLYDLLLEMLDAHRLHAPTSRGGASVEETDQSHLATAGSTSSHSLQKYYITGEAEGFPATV

Row | Compound | Traditional Western Degradation Potency
1 | C[C@@H]1Cc2c([nH]c3ccccc23)[C@@H](c2c(F)cc(N3CCCC(CN4CCC(C(=O)N5Cc6cc7c(cc6C5)C(=O)N(C5CCC(=O)NC5=O)C7=O)CC4)C3)cc2F)N1CC(F)F (stereo partly drawn) [Compound B189, 6-(1-((1-(4-((1R,3R)-2-(2,2-difluoroethyl)-3-methyl-2,3,4,9-tetrahydro-1H-pyrido[3,4-b]indol-1-yl)-3,5-difluorophenyl)piperidin-3-yl)methyl)piperidine-4-carbonyl)-2-(2,6-dioxopiperidin-3-yl)-6,7-dihydropyrrolo[3,4-f]isoindole-1,3(2H,5H)-dione] | B (“B”: 10-100 nM)
2 | C[C@@H]1Cc2c([nH]c3ccccc23)[C@@H](c2c(F)cc(N3CC4(CCN4CC(=O)N4Cc5cc6c(cc5C4)C(=O)N(C4CCC(=O)NC4=O)C6=O)C3)cc2F)N1CC(F)F (stereo partly drawn) [Compound B191, 6-(2-(6-(4-((1R,3R)-2-(2,2-difluoroethyl)-3-methyl-2,3,4,9-tetrahydro-1H-pyrido[3,4-b]indol-1-yl)-3,5-difluorophenyl)-1,6-diazaspiro[3.3]heptan-1-yl)acetyl)-2-(2,6-dioxopiperidin-3-yl)-6,7-dihydropyrrolo[3,4-f]isoindole-1,3(2H,5H)-dione] | C (“C”: >100 nM)
3 | C[C@@H]1Cc2c([nH]c3ccccc23)[C@@H](c2c(F)cc(N3CCC4(CCN(C(=O)CN5Cc6cc7c(cc6C5)C(=O)N(C5CCC(=O)NC5=O)C7=O)CC4)CC3)cc2F)N1CC(F)(F)F (stereo partly drawn) [Compound B199, 6-(2-(9-(3,5-difluoro-4-((1R,3R)-3-methyl-2-(2,2,2-trifluoroethyl)-2,3,4,9-tetrahydro-1H-pyrido[3,4-b]indol-1-yl)phenyl)-3,9-diazaspiro[5.5]undecan-3-yl)-2-oxoethyl)-2-(2,6-dioxopiperidin-3-yl)-6,7-dihydropyrrolo[3,4-f]isoindole-1,3(2H,5H)-dione] | B (“B”: 10-100 nM)
4 | C[C@@H]1Cc2c([nH]c3ccccc23)[C@@H](c2c(F)cc(N3CCC4(CC3)CN(C(=O)CN3Cc5cc6c(cc5C3)C(=O)N(C3CCC(=O)NC3=O)C6=O)C4)cc2F)N1CC(F)(F)F (stereo partly drawn) [Compound B200, 6-(2-(7-(3,5-difluoro-4-((1R,3R)-3-methyl-2-(2,2,2-trifluoroethyl)-2,3,4,9-tetrahydro-1H-pyrido[3,4-b]indol-1-yl)phenyl)-2,7-diazaspiro[3.5]nonan-2-yl)-2-oxoethyl)-2-(2,6-dioxopiperidin-3-yl)-6,7-dihydropyrrolo[3,4-f]isoindole-1,3(2H,5H)-dione] | B (“B”: 10-100 nM)
5 | C[C@@H]1Cc2c([nH]c3ccccc23)[C@@H](c2c(F)cc(N3CCC(C(=O)N4CCC(N5Cc6cc7c(cc6C5)C(=O)N(C5CCC(=O)NC5=O)C7=O)CC4)CC3)cc2F)N1CC(F)(F)F (stereo partly drawn) [Compound B201, 6-(1-(1-(3,5-difluoro-4-((1R,3R)-3-methyl-2-(2,2,2-trifluoroethyl)-2,3,4,9-tetrahydro-1H-pyrido[3,4-b]indol-1-yl)phenyl)piperidine-4-carbonyl)piperidin-4-yl)-2-(2,6-dioxopiperidin-3-yl)-6,7-dihydropyrrolo[3,4-f]isoindole-1,3(2H,5H)-dione] | B (“B”: 10-100 nM)
6 | C[C@@H]1Cc2c([nH]c3ccccc23)[C@@H](c2c(F)cc(N3CC(C(=O)N4CC(CN5Cc6cc7c(cc6C5)C(=O)N(C5CCC(=O)NC5=O)C7=O)C4)C3)cc2F)N1CC(F)F (stereo partly drawn) [Compound B203, 6-((1-(1-(4-((1R,3R)-2-(2,2-difluoroethyl)-3-methyl-2,3,4,9-tetrahydro-1H-pyrido[3,4-b]indol-1-yl)-3,5-difluorophenyl)azetidine-3-carbonyl)azetidin-3-yl)methyl)-2-(2,6-dioxopiperidin-3-yl)-6,7-dihydropyrrolo[3,4-f]isoindole-1,3(2H,5H)-dione] | B (“B”: 10-100 nM)
7 | C[C@@H]1Cc2c([nH]c3ccccc23)[C@@H](c2c(F)cc(N3CCC4(CCN(CC5Cc6cc7c(cc6C5)C(=O)N(C5CCC(=O)NC5=O)C7=O)CC4)CC3)cc2F)N1CC(F)(F)F (stereo partly drawn) [Compound B204, 6-((9-(3,5-difluoro-4-((1R,3R)-3-methyl-2-(2,2,2-trifluoroethyl)-2,3,4,9-tetrahydro-1H-pyrido[3,4-b]indol-1-yl)phenyl)-3,9-diazaspiro[5.5]undecan-3-yl)methyl)-2-(2,6-dioxopiperidin-3-yl)-6,7-dihydrocyclopenta[f]isoindole-1,3(2H,5H)-dione] | C (“C”: >100 nM)

Results, then the compound that gave them:

Row | Traditional Western Degradation Potency | Compound
8 | A (“A”: <10 nM) | C[C@@H]1Cc2c([nH]c3ccccc23)[C@@H](c2c(F)cc(N3CCC(CN4CCC(C(=O)N5Cc6cc7c(cc6C5)C(=O)N(C5CCC(=O)NC5=O)C7=O)CC4)C3)cc2F)N1CC(F)F (stereo partly drawn) [Compound B188, 6-(1-((1-(4-((1R,3R)-2-(2,2-difluoroethyl)-3-methyl-2,3,4,9-tetrahydro-1H-pyrido[3,4-b]indol-1-yl)-3,5-difluorophenyl)pyrrolidin-3-yl)methyl)piperidine-4-carbonyl)-2-(2,6-dioxopiperidin-3-yl)-6,7-dihydropyrrolo[3,4-f]isoindole-1,3(2H,5H)-dione]
9 | B (“B”: 10-100 nM) | C[C@@H]1Cc2c([nH]c3ccccc23)[C@@H](c2c(F)cc(N3CCCC(CN4CCC(N5Cc6cc7c(cc6C5)C(=O)N(C5CCC(=O)NC5=O)C7=O)CC4)C3)cc2F)N1CC(F)F (stereo partly drawn) [Compound B190, 6-(1-((1-(4-((1R,3R)-2-(2,2-difluoroethyl)-3-methyl-2,3,4,9-tetrahydro-1H-pyrido[3,4-b]indol-1-yl)-3,5-difluorophenyl)piperidin-3-yl)methyl)piperidin-4-yl)-2-(2,6-dioxopiperidin-3-yl)-6,7-dihydropyrrolo[3,4-f]isoindole-1,3(2H,5H)-dione]
10 | C (“C”: >100 nM) | C[C@@H]1Cc2c([nH]c3ccccc23)[C@@H](c2c(F)cc(N3CC4(CCN4CC(=O)N4Cc5cc6c(cc5C4)C(=O)N(C4CCC(=O)NC4=O)C6)C3)cc2F)N1CC(F)F (stereo partly drawn) [Compound B192, 3-(6-(2-(6-(4-((1R,3R)-2-(2,2-difluoroethyl)-3-methyl-2,3,4,9-tetrahydro-1H-pyrido[3,4-b]indol-1-yl)-3,5-difluorophenyl)-1,6-diazaspiro[3.3]heptan-1-yl)acetyl)-1-oxo-3,5,6,7-tetrahydropyrrolo[3,4-f]isoindol-2(1H)-yl)piperidine-2,6-dione]
11 | A (“A”: <10 nM) | C[C@@H]1Cc2c([nH]c3ccccc23)[C@@H](c2c(F)cc(N3CCC4(CCN(CC(=O)N5Cc6cc7c(cc6C5)C(=O)N(C5CCC(=O)NC5=O)C7=O)C4)CC3)cc2F)N1CC(F)F (stereo partly drawn) [Compound B193, 6-(2-(8-(4-((1R,3R)-2-(2,2-difluoroethyl)-3-methyl-2,3,4,9-tetrahydro-1H-pyrido[3,4-b]indol-1-yl)-3,5-difluorophenyl)-2,8-diazaspiro[4.5]decan-2-yl)acetyl)-2-(2,6-dioxopiperidin-3-yl)-6,7-dihydropyrrolo[3,4-f]isoindole-1,3(2H,5H)-dione]
12 | A (“A”: <10 nM) | C[C@@H]1Cc2c([nH]c3ccccc23)[C@@H](c2c(F)cc(N3CCC4(CCN(CC(=O)N5Cc6cc7c(cc6C5)C(=O)N(C5CCC(=O)NC5=O)C7)C4)CC3)cc2F)N1CC(F)F (stereo partly drawn) [Compound B194, 3-(6-(2-(8-(4-((1R,3R)-2-(2,2-difluoroethyl)-3-methyl-2,3,4,9-tetrahydro-1H-pyrido[3,4-b]indol-1-yl)-3,5-difluorophenyl)-2,8-diazaspiro[4.5]decan-2-yl)acetyl)-1-oxo-3,5,6,7-tetrahydropyrrolo[3,4-f]isoindol-2(1H)-yl)piperidine-2,6-dione]
13 | A (“A”: <10 nM) | C[C@@H]1Cc2c([nH]c3ccccc23)[C@@H](c2c(F)cc(N3CCC4(CCN(C(=O)CN5Cc6cc7c(cc6C5)C(=O)N(C5CCC(=O)NC5=O)C7)C4)CC3)cc2F)N1CC(F)F (stereo partly drawn) [Compound B195, 3-(6-(2-(8-(4-((1R,3R)-2-(2,2-difluoroethyl)-3-methyl-2,3,4,9-tetrahydro-1H-pyrido[3,4-b]indol-1-yl)-3,5-difluorophenyl)-2,8-diazaspiro[4.5]decan-2-yl)-2-oxoethyl)-1-oxo-3,5,6,7-tetrahydropyrrolo[3,4-f]isoindol-2(1H)-yl)piperidine-2,6-dione]
14 | A (“A”: <10 nM) | C[C@@H]1Cc2c([nH]c3ccccc23)[C@@H](c2c(F)cc(N3CC[C@@H](CN4CCC(C(=O)N5Cc6cc7c(cc6C5)C(=O)N(C5CCC(=O)NC5=O)C7)CC4)C3)cc2F)N1CC(F)F (stereo partly drawn) [Compound B196, 3-(6-(1-(((S)-1-(4-((1R,3R)-2-(2,2-difluoroethyl)-3-methyl-2,3,4,9-tetrahydro-1H-pyrido[3,4-b]indol-1-yl)-3,5-difluorophenyl)pyrrolidin-3-yl)methyl)piperidine-4-carbonyl)-1-oxo-3,5,6,7-tetrahydropyrrolo[3,4-f]isoindol-2(1H)-yl)piperidine-2,6-dione]
15 | A (“A”: <10 nM) | C[C@@H]1Cc2c([nH]c3ccccc23)[C@@H](c2c(F)cc(N3CC[C@@H](CN4CCC(C(=O)N5Cc6cc7c(cc6C5)C(=O)N(C5CCC(=O)NC5=O)C7=O)CC4)C3)cc2F)N1CC(F)F (stereo partly drawn) [Compound B197, 6-(1-(((S)-1-(4-((1R,3R)-2-(2,2-difluoroethyl)-3-methyl-2,3,4,9-tetrahydro-1H-pyrido[3,4-b]indol-1-yl)-3,5-difluorophenyl)pyrrolidin-3-yl)methyl)piperidine-4-carbonyl)-2-(2,6-dioxopiperidin-3-yl)-6,7-dihydropyrrolo[3,4-f]isoindole-1,3(2H,5H)-dione]
16 | B (“B”: 10-100 nM) | C[C@@H]1Cc2c([nH]c3ccccc23)[C@@H](c2c(F)cc(N3CC(C(=O)N4CC(N5Cc6cc7c(cc6C5)C(=O)N(C5CCC(=O)NC5=O)C7=O)C4)C3)cc2F)N1CC(F)F (stereo partly drawn) [Compound B202, 6-(1-(1-(4-((1R,3R)-2-(2,2-difluoroethyl)-3-methyl-2,3,4,9-tetrahydro-1H-pyrido[3,4-b]indol-1-yl)-3,5-difluorophenyl)azetidine-3-carbonyl)azetidin-3-yl)-2-(2,6-dioxopiperidin-3-yl)-6,7-dihydropyrrolo[3,4-f]isoindole-1,3(2H,5H)-dione]

From patent US20260007681A1, “INDOLE DERIVATIVES AS ESTROGEN RECEPTOR DEGRADERS” (REGENTS OF THE UNIVERSITY OF MICHIGAN, priority 2022, published 2026)
